Assay results published in US20070032458A1, “Compound having activity for inhibiting dioxin toxicity, pharmaceutical composition comprising the compound and method for treating disease resulting from dioxin toxicity using the compound” (priority 2005, published 2007).
Where two headings read alike, the source gives them in different places.

Assays:
[1] = test system: Cytochrome P450 enzyme activity (ethoxyresorufin-O-deethylase activity); experiment: Dioxin-induced EROD (cytochrome P450 enzyme) activity inhibition in Hep G2 cells; assay type: cell-based; conditions: Homo sapiens, read-out: Dioxin-induced EROD activity inhibition IC50
Experimental: (§1) Hep G2 cell that is a human hepatocarcinoma cell line was cultured in an incubator with a culture medium of Dulbecco's Modified Eagle Medium (DMEM) containing 10% of Fetal Bovine Serum (FBS) at 37° C. under an atmosphere of 5% of CO2.
1×104 of the cultured human hepatocarcinoma cells were placed into wells of a […]. After 24 hours, the cells were treated with a solution in which compounds represented by formulae 2 through 8 (obtained from Chembridge Corporation, San Diego, Calif.) were dissolved in dimethyl sulfoxide (DMSO) in a concentration of 0.1%. After one hour, the cells were treated with 3 nM of 2,3,7,8-tetrachlorodibenzo-p-dioxin (obtained from Cambridge Isotope Laboratory, Andover, Mass., U.S.A.). Cytochrome P450 enzyme activity was measured after 24 hours and the measured activity was evaluated by measuring ethoxyresorufin-O-deethylase activity (EROD, Ciolino et al, 1998).

[2] = test system: cytochrome P450 1A1; experiment: Western blot of dioxin-induced cytochrome P450 1A1 expression in hepatocarcinoma cells; assay type: cell-based, human
Experimental: as §1
3×10^5 of the cultured human hepatocarcinoma cells were placed into tissue culture plates and cultured for 24 hours. After 24 hours, the cells were treated with a solution in which Compound 2 (obtained from Chembridge Corporation, San Diego, Calif.) was dissolved in dimethyl sulfoxide (DMSO) in a concentration of 0.1%. After one hour, the cells were treated with 3 nM of 2,3,7,8-tetrachlorodibenzo-p-dioxin (obtained from Cambridge Isotope Laboratory, Andover, Mass., U.S.A.). After 24 hours, the culture medium was removed by suction and the cells were washed with phosphate buffer solution. Then the cells were lysed and the protein was quantified.
In FIG. 1, flavone that has been widely reported to inhibit dioxin toxicity even though it increases dioxin toxicity at high concentrations was used as a positive control group. FIG. 1 illustrates Western blot analysis of cells treated with Compound 2 and flavone.

[3] = target: T1, dioxin receptor (Homo sapiens, UniProt P35869); experiment: Inhibition of 3[H]-dioxin binding to its receptor in hepatocarcinoma cell cytoplasm (hydroxylapatite)
T1 construct: endogenous in cells; host or cells: hepatocarcinoma cells (cytoplasm fraction)
T1 sequence (P35869 11-848): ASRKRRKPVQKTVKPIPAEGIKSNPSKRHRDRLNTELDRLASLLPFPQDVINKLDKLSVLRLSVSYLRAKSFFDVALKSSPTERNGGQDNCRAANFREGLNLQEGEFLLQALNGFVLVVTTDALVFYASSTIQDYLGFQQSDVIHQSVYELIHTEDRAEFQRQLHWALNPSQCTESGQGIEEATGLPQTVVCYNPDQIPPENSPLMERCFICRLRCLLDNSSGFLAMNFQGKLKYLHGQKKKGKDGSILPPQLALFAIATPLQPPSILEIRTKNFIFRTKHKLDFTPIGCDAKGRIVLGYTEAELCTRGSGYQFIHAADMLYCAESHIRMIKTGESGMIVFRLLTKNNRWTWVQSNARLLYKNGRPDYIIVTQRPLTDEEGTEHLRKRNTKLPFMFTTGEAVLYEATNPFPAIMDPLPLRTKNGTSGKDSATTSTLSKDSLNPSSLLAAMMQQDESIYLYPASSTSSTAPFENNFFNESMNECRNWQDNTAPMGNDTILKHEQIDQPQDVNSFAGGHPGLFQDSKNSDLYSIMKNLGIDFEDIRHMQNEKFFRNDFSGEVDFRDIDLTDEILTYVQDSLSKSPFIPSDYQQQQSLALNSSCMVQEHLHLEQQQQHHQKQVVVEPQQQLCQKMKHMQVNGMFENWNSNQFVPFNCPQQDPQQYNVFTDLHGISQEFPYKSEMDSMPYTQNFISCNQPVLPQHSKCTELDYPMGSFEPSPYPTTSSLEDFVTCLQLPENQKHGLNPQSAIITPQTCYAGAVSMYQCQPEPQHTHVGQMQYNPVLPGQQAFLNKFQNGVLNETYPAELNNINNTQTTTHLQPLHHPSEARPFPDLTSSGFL
Experimental: Compound 2 and 3[H]-dioxin were added to cytoplasm of hepatocarcinoma cells and analysis on binding of ligand-receptor was performed using hydroxylapatite. […] The results are illustrated in FIG. 2.
FIG. 2 illustrates the ability in percentage of Compound 2 to inhibit the binding of 3[H]-dioxin to its receptor.

| SMILES | IC50 ([1]; HepG2, 24 h) [nM] | also measured |
| --- | --- | --- |
| Cc1ccccc1N=Nc1ccc(NC(=O)c2ccnn2C)c(C)c1 [Compound 2] | 30 ± 2 | expression of cytochrome P450 1A1 that is increased by dioxin ([2]; human hepatocarcinoma cells, 3 nM dioxin, 24 hours, Western blot): inhibited expression of cytochrome P450 1A1; effect in decreasing the amount of expressed cytochrome P450 enzyme ([2]; various concentrations, FIG. 1): excellent effect; binding ability of 3[H]-dioxin to its receptor with increasing concentration ([3]; Compound 2 at 0.1, 1 and 10 μM, FIG. 2): decreased as the concentration of Compound 2 increased; binding of 3[H]-dioxin to its receptor ([3]; cytoplasm of hepatocarcinoma cells, hydroxylapatite): inhibited the binding |
| CC(=O)N(C(C)=O)c1ccc(N=Nc2ccccc2C)cc1C [Compound 3] | 75 ± 4 | – |
| Cc1ccccc1N=Nc1ccc(NC(=O)c2ccc(F)cc2)c(C)c1 [Compound 4] | 105 ± 11 | – |
| Cc1ccccc1N=Nc1ccc(NC(=O)C(C)C)c(C)c1 [Compound 5] | 110 ± 7 | – |
| Cc1ccccc1N=Nc1ccc(NC(=O)c2cccs2)c(C)c1 [Compound 6] | 153 ± 10 | – |
| Cc1cc(N=Nc2ccccc2C)ccc1N [Compound 7] | – | IC50 ([1]; HepG2, Hep G2 cells, 3 nM 2,3,7,8-tetrachlorodibenzo-p-dioxin, measured after 24 hours): 215 ± 42 nM |
| CCCCNC(=O)Nc1ccc(N=Nc2ccccc2C)cc1C [Compound 8] | 450 ± 75 | – |
